Experimental data reported in US20120165304A1, “6,7,8,9-Tetrahydro-5H-1,4,7,10a-tetraaza-cyclohept[f]indene derivatives, pharmaceutical compositions containing these compounds, their use and processes for preparing them” (BOEHRINGER INGELHEIM INTERNATIONAL GMBH, priority 2008, published 2012).

Molecular target: human 5-HT2C receptor (Homo sapiens, UniProt P28335, I156V/I160V/N158S)
Test: cell-based

Chain of human 5-HT2C receptor (P28335 33-458 I156V/N158S/I160V limits assumed): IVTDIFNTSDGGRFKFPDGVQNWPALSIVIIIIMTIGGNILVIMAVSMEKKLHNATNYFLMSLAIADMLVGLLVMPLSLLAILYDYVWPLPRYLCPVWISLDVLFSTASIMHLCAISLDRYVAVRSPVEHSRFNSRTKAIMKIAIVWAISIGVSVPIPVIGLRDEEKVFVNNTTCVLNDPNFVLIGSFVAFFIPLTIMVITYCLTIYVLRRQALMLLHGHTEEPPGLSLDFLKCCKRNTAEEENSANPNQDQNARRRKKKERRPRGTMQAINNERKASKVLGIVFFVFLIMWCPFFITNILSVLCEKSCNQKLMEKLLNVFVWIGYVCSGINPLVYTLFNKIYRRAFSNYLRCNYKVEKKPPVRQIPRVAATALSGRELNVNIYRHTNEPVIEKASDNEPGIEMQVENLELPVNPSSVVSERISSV

COc1ccccc1OCC1CN(c2c3c(nc4ccnn24)CCNCC3)C1 [Example 15.21]
EC50: 29 nM

CN(C)[C@H]1CC[C@H](NC(=O)C2CN(c3c4c(nc5ccnn35)CCNCC4)C2)CC1 [Example 37.98]
EC50: 25 nM

Cc1cnn2c(N3CC(C(=O)N4CCC5(CCCCC5)CC4)C3)c3c(nc12)CCNCC3 [Example 31.235]
EC50: 84 nM

O=C(C1CN(c2c3c(nc4ccnn24)CCNCC3)C1)N1CCc2cc(Cl)ccc21 [Example 31.147]
EC50: 78 nM

CCN1CCN(C(=O)C2CN(c3c4c(nc5ccnn35)CCNCC4)C2)CC1=O [Example 37.65]
EC50: 5 nM

CCC1CCC(C)N(C(=O)C2CN(c3c4c(nc5ccnn35)CCNCC4)C2)C1 (stereo not shown) [Example 31.184]
EC50: 287 nM

COc1ccc(CCN(C)C(=O)C2CN(c3c4c(nc5ccnn35)CCNCC4)C2)cc1 [Example 31.27]
EC50: 274 nM

CN1CCc2nc3ccnn3c(N3CC(C(=O)N4CCN(C)CC4)C3)c2CC1 [Example 36.51]
EC50: 81 nM

FC(F)(F)c1ccnc(OC2CN(c3c4c(nc5ccnn35)CCNCC4)C2)n1 [Example 35.48]
EC50: 526 nM

C1=C(c2c3c(nc4ccnn24)CCNCC3)CCNC1 [Example 24, 10-(1,2,3,6-Tetrahydro-pyridin-4-yl)-6,7,8,9-tetrahydro-5H-1,4,7,10a-tetraaza-cyclohepta[f]indene]
EC50: 588 nM

O=C(C1CN(c2c3c(nc4ccnn24)CCNCC3)C1)N1CC2CCCC2C1 (stereo not shown) [Example 31.166]
EC50: 97 nM

O=C(C1CN(c2c3c(nc4ccnn24)CCNCC3)C1)N1CCc2sccc2C1 [Example 31.36]
EC50: 57 nM

O=C(C1CN(c2c3c(nc4ccnn24)CCNCC3)C1)N1CCC(c2ccc(F)cc2)CC1 [Example 31.110]
EC50: 30 nM
